# What was measured:
# MCF7 [1] = experiment: Growth inhibition of human MCF7 cells relative to control; format: functional
# MDA-MB-231 [2] = experiment: Growth inhibition of human MDA-MB-231 cells relative to control; format: functional
# Ishikawa [3] = experiment: Growth inhibition of human Ishikawa cells relative to control; format: functional
# MDA-MB-231 [4] = experiment: Cytotoxicity against human MDA-MB-231 cells assessed as reduction in cell viability; format: functional, cell-based
# Ishikawa [5] = experiment: Cytotoxicity against human Ishikawa cells assessed as reduction in cell viability; format: functional, cell-based
# MCF7 [6] = experiment: Cytotoxicity against human MCF7 cells assessed as reduction in cell viability; format: functional, cell-based
# MCF7 [7] = experiment: Potency index, ratio of methotrexate IC50 to compound IC50 for cytotoxicity against human MCF7 cells assessed as reduction in cell viability; format: functional
# MCF7 [8] = experiment: Cytotoxicity against human MCF7 cells assessed as reduction in cell viability by MTT assay; format: functional, cell-based; details: for IC50: Homo sapiens, MCF7
# [9] = Toxicity in mouse assessed as mouse survival (reference value: 14.5 days); details: in vivo, 348 h
# COS-7 = experiment: Cytotoxicity against African green monkey COS7 cells assessed as reduction in cell viability by MTT assay; format: functional, cell-based; details: Chlorocebus aethiops
# HeLa [10] = experiment: Cytotoxicity against human HeLa cells assessed as reduction in cell viability by MTT assay; format: functional, cell-based
# PANC-1 = experiment: Cytotoxicity against human PANC1 cells assessed as reduction in cell viability by MTT assay; format: functional, cell-based
# HepG2 [11] = experiment: Cytotoxicity against human HepG2 cells assessed as reduction in cell viability by MTT assay; format: functional, cell-based
# A549 [12] = experiment: Cytotoxicity against human A549 cells assessed as reduction in cell viability by MTT assay; format: functional, cell-based
# HepG2 [13] = experiment: Anticancer activity against human HepG2 cells by MTT assay; format: functional, cell-based
# HepG2 [14] = experiment: Potency index, ratio of doxorubicin IC50 to compound IC50 for anticancer activity against human HepG2 cells by MTT assay; format: functional
# HCT-116 = experiment: Anticancer activity against human HCT116 cells; format: functional, cell-based
# HT-29 = experiment: Cytotoxicity against human HT-29 cells assessed as reduction in cell viability by MTT assay; format: functional, cell-based
# PC-3 = experiment: Cytotoxicity against human PC3 cells assessed as reduction in cell viability by MTT assay; format: functional, cell-based
# DLD-1 = experiment: Cytotoxicity against human DLD1 cells assessed as reduction in cell viability; format: functional, cell-based
# HepG2 [15] = experiment: Cytotoxicity against human HepG2 cells assessed as reduction in cell viability after 48 hrs by MTT assay; format: functional, cell-based; details: HepG2, 48 h
# HepG2 [16] = experiment: Antiproliferative activity against human HepG2 cells after 72 hrs by ELISA; format: functional, cell-based; details: HepG2, 72 h
# MDA-MB-231 [17] = experiment: Cytotoxicity against human MDA-MB-231 cells assessed as reduction in cell viability after 24 hrs by MTT assay; format: functional, cell-based; details: Homo sapiens, MDA-MB-231, 24 h
# NCI-H460 = experiment: Growth inhibition of human NCI-H460 cells; format: functional
# A549 [18] = experiment: Anticancer activity against human A549 cells by MTT assay; format: functional, cell-based
# HeLa [19] = experiment: Anticancer activity against human HeLa cells by MTT assay; format: functional, cell-based
# SF-268 = experiment: Growth inhibition of human SF268 cells; format: functional
# K562 = experiment: Anticancer activity against human K562 cells by MTT assay; format: functional, cell-based
# MDA-MB-231 [20] = experiment: Anticancer activity against human MDA-MB-231 cells by MTT assay; format: functional, cell-based
# Caco-2 = experiment: Antiproliferative activity against human Caco2 cells after 72 hrs by ELISA; format: functional, cell-based; details: Caco-2, 72 h
# HeLa [21] = experiment: Cytotoxicity against human HeLa cells assessed as reduction in cell viability after 24 hrs by MTT assay; format: functional, cell-based
# 769-P = experiment: Anticancer activity against human 769-P cells by MTT assay; format: functional, cell-based
# HeLa [22] = experiment: Antiproliferative activity against human HeLa cells by MTT assay; format: functional, cell-based
# L02 = experiment: Cytotoxicity against human L02 cells assessed as reduction in cell viability after 24 hrs by MTT assay; format: cell-based; details: L02, 24 h
# HEK-293T = experiment: Cytotoxicity against HEK293T cells assessed as reduction in cell viability after 24 hrs by MTT assay; format: cell-based; details: Homo sapiens
# MCF7 [23] = experiment: Growth inhibition of human MCF7 cells; format: functional
# A549 [24] = experiment: Cytotoxicity against human A549 cells assessed as reduction in cell viability after 24 hrs by MTT assay; format: functional, cell-based; details: A549, 24 h
# MDA-MB-231 [25] = experiment: Cytotoxicity against human MDA-MB-231 cells assessed as reduction in cell viability after 24 hrs in hypoxic condition by MTT assay; details: MDA-MB-231, 24 h
# [26] = Cytotoxicity against BHK cells assessed as reduction in cell viability by MTT assay; details: Cricetinae
# MCF7 [27] = experiment: Cytotoxicity against human MCF7 cells assessed as reduction in cell viability after 24 hrs by MTT assay; format: functional, cell-based; details: MCF7, 24 h
smiles,measurement,setting,value
Cc1cc(=O)oc2cc(Oc3nc(-c4cccs4)cn4c(-c5cccs5)cnc34)ccc12,growth inhibition (GI),MCF7 [1],10.57 - 92.29%
same,growth inhibition (GI),MDA-MB-231 [2],10.57 - 92.29%
same,growth inhibition (GI),Ishikawa [3],10.57 - 92.29%
COC(=O)c1cc2cc(-c3nc4cc(C)ccn4c3NC(C)(C)C)cc(C(C)C)c2oc1=O,IC50,MDA-MB-231 [4],14.1 to 42.6 µM
same,IC50,Ishikawa [5],14.1 to 42.6 µM
same,IC50,MCF7 [6],14.1 to 42.6 µM
CCN(C)S(=O)(=O)c1ccc(/C(C)=N/NC(=O)c2cc(=O)oc3ccccc23)cc1,Ratio IC50,MCF7 [7],10.7
same,IC50,MCF7 [8],2.53 µM
O=c1oc2ccccc2cc1-c1csc(N/N=C/c2c3ccccc3c(Cl)c3ccccc23)n1,Survival,[9],45.5 days
same,IC50,COS-7,1.29 to 1.96 µM
same,IC50,MCF7 [6],1.29 to 1.96 µM
same,IC50,HeLa [10],1.29 to 1.96 µM
O=c1oc2ccccc2cc1-c1csc(N/N=C/c2cc([N+](=O)[O-])ccc2Cl)n1,Survival,[9],39.3 days
same,IC50,COS-7,1.29 to 1.96 µM
same,IC50,MCF7 [6],1.29 to 1.96 µM
same,IC50,HeLa [10],1.29 to 1.96 µM
COc1cc(Cl)ccc1NS(=O)(=O)c1ccc2oc(=O)ccc2c1,IC50,PANC-1,4.63 to 7.02 µM
same,IC50,"HepG2 [11]; Homo sapiens, HepG2",4.63 to 7.02 µM
same,IC50,A549 [12],4.63 to 7.02 µM
O=c1ccc2ccc(OCCn3cc(COc4ccc5ccc(=O)oc5c4)nn3)cc2o1,IC50,HepG2 [13],0.383 µM
same,Ratio IC50,HepG2 [14],2.1
NS(=O)(=O)c1ccc(Nc2nn3c(Cc4cc(=O)oc5ccccc45)nnc3s2)cc1,IC50,HCT-116,2.66 µM
COc1ccc2oc(=O)c(/C=C3\SC(=O)N(C(=O)c4ccc(Cl)cc4)C3=O)cc2c1,IC50,HT-29,0.95 to 3.2 µM
same,IC50,PC-3,0.95 to 3.2 µM
same,IC50,A549 [12],0.95 to 3.2 µM
same,IC50,HeLa [10],0.95 to 3.2 µM
same,IC50,MCF7 [8],0.95 to 3.2 µM
COc1cccc2c1C(=O)c1c(O)c3c(c(O)c1C2=O)C[C@@](O)(C(=O)CO)C[C@@H]3O[C@H]1C[C@H](N)[C@H](O)[C@H](C)O1 [DOXORUBICIN],IC50,DLD-1,163 µM
same,IC50,HepG2 [15],3.01 µM
same,IC50,HepG2 [16],4.1 µM
same,IC50,MDA-MB-231 [17],3.97 to 5.13 µM
same,GI50,NCI-H460,0.04 to 0.09 µM
same,IC50,A549 [18],0.54 to 0.6 mg/L
same,IC50,HT-29,0.82 to 2.13 µM
same,IC50,HeLa [19],0.54 to 0.6 mg/L
same,IC50,COS-7,2.05 to 3.04 µM
same,IC50,PC-3,0.82 to 2.13 µM
same,GI50,SF-268,0.04 to 0.09 µM
same,growth inhibition (GI),Ishikawa [3],11.55 - 95.52%
same,IC50,K562,0.54 to 0.6 mg/L
same,IC50,MDA-MB-231 [20],0.45 to 0.89 mg/L
same,IC50,Caco-2,5.13 µM
same,IC50,HeLa [21],3.97 to 5.13 µM
same,IC50,769-P,0.45 to 0.89 µM
same,IC50,HeLa [22],1.11 µM
same,IC50,A549 [12],0.82 to 2.13 µM
same,IC50,L02,1.09 µM
same,IC50,HepG2 [13],0.45 to 0.89 µM
same,IC50,HEK-293T,3.77 µM
same,GI50,MCF7 [23],0.04 to 0.09 µM
same,IC50,HeLa [10],0.82 to 3.04 µM
same,IC50,A549 [24],3.97 to 5.13 µM
same,IC50,MDA-MB-231 [25],0.6 µM
O=c1[nH]cc(F)c(=O)[nH]1 [FLUOROURACIL],Survival,[9],49 days
same,growth inhibition (GI),HepG2 [11],11.55 - 95.52%
same,growth inhibition (GI),MCF7 [8],11.55 - 95.52%
CN(Cc1cnc2nc(N)nc(N)c2n1)c1ccc(C(=O)N[C@@H](CCC(=O)O)C(=O)O)cc1 [METHOTREXATE],IC50,[26],150 µM
same,IC50,MCF7 [8],27.1 µM
CC(C)=CC[C@@H](O)C1=CC(=O)c2c(O)ccc(O)c2C1=O [SHIKONIN],IC50,MDA-MB-231 [17],6.5 to 10.4 µM
same,IC50,HeLa [21],6.5 to 10.4 µM
same,IC50,MCF7 [27],6.5 to 10.4 µM
same,IC50,L02,6.22 µM
same,IC50,HEK-293T,1.52 µM
same,IC50,A549 [24],6.5 to 10.4 µM

# From ChEMBL document CHEMBL4373717, “Coumarin-containing hybrids and their anticancer activities” (Eur J Med Chem, 2019)
